Assay: Single dose, open-label, 4-period crossover pharmacokinetic study; plasma tramadol and O-desmethyltramadol (M1) by HPLC-MS/MS; AQ=Cmax/Tmax
Conditions: for AQ for tramadol, comparison between treatments (in words): 4-way cross-over study, co-crystal vs Ultram® and vs Ultram® and Celebrex® taken concomitantly, Ultram® alone vs in combination; for O-desmethyltramadol AQ / Tramadol AQ: n 33, 2 × 100 mg co-crystal E-58425 tablets oral (Treatment 1), healthy subjects
Description: The study was a single center, randomized, single dose, open-label, 4-period, 4-sequence, crossover design in healthy male and female subjects.
The products were administered to 36 subjects. The wash-out between the periods for each subject was of 7 calendar days.
Separate blood samples were obtained for analysis of tramadol/M1 metabolite and for analysis of celecoxib (data not shown).
As soon as possible following blood collection, samples were centrifuged at a temperature of 4° C. nominal and at approximately 1500 g for 10 minutes. The plasma obtained was separated into duplicate polypropylene culture tubes. […] The samples were frozen in an upright position and retained in the clinic's freezers at a temperature of −20° C. nominal until sent on dry ice to the bioanalytical facility for assay.
The experimental human plasma samples were assayed for tramadol and M1 metabolite (0-desmethyltramadol) and also for celecoxib (data not shown) using two different validated bioanalytical methods by HPLC with MS/MS detection.
Sample pre-treatment involved the liquid-liquid extraction of tramadol and O-desmethyltramadol from 0.100 mL of human plasma; tramadol-D6 and O-desmethyltramadol-D6 were used as the internal standards (IS1 and IS2 respectively). The compounds were identified and quantified using Hilic HPLC with MS/MS detection over a theoretical concentration range of 2.00 ng/mL to 800.00 ng/mL for tramadol and 0.500 ng/mL to 200.00 ng/mL for O-desmethyltramadol. The concentrations were calculated using peak area ratios and the linearity of the calibration curve was determined using a weighted (1/x^2) linear (y=mx+b) least squares regression analysis for tramadol and for O-desmethyltramadol.
Pharmacokinetic parameters were estimated from the individual plasma concentration—time profile for each subject. The main absorption and disposition parameters were obtained using a non-compartmental approach with a log-linear terminal phase assumption. Maximum observed plasma concentration (Cmax) and the time of maximum observed plasma concentration (Tmax) were obtained directly from the experimental data. The trapezoidal rule was used to estimate the area under the curve (AUC; data not shown) and the terminal phase was estimated by maximizing the coefficient of determination estimated from the log-linear regression model (T1/2; data not shown). The abuse quotient was obtained using the following expression AQ=Cmax/Tmax.

## COc1cccc(C2(O)CCCCC2CN(C)C)c1.Cc1ccc(-c2cc(C(F)(F)F)nn2-c2ccc(S(N)(=O)=O)cc2)cc1.Cl (racemic) [Co-crystal E-58425, co-crystal of (rac)-tramadol.HCl and celecoxib]
  AQ for tramadol, comparison between treatments (in words): lower
Listed as co-crystal E-58425
  AQ for tramadol, comparison between treatments (in words): better (lower)
Mean
  O-desmethyltramadol AQ: 13.5 ng/(mL · h)
  Tramadol AQ: 70.5 ng/(mL · h)
Median
  O-desmethyltramadol AQ: 13.3 ng/(mL · h)
  Tramadol AQ: 70.7 ng/(mL · h)
